Experimental data published in US7833532B2, “Immunogenic lipopeptides comprising T-helper and cytotoxic T lymphocyte (CTL) epitopes” (The Council of The Queensland Institute of Medical Research, priority 2002, dated 2010).
“Also recorded” adds a separate entry of the source. Side chains are listed from the residue outwards. Ends that are not written are not given here.

How the values were obtained:
[1] = system: splenocytes; assay: IFN-gamma producing splenocytes after immunization with L. monocytogenes CTL epitope peptides; format: in vivo, BALB/c mice; conditions: 9 nmoles subcutaneously, in vitro stimulation with CTL epitope, day 28
Source text: FIG. 11 is a graphical representation showing induction of interferon-gamma producing cells by lipopeptide. Peptide comprising a T-helper epitope and a CTL epitope of Listeria monocytogenes linked via the epsilon amino group of an internal lysine residue positioned between said epitopes to Pam2Cys (i.e. the peptide [P25]-Lys(Pam2Cys-Ser-Ser)-[LLO91-99] listed in FIG. 2 and based upon SEQ ID NO: 175), or lipopeptide(s) based on this structure in which Pam2Cys was linked through the epsilon amino group of said lysine, were used to inoculate mice. […] Splenocytes were obtained from the immunized animals and stimulated in vitro with either the isolated CTL epitope having the sequence set forth in SEQ ID NO: 172 (open bars) or no antigen (filled bars), and the number of (IFN-gamma) producing cells present was measured 28 days later. […]
5 BALB/c mice were inoculated with 9 nmoles of non-lipidated peptide ([P25]-Lys-[LLO91-99]), or lipidated peptide ([P25]-Lys(Pam2Cys-Ser-Ser)-[LLO91-99]) in which lipid was attached between the two epitopes at the approximate centre of the molecule, or with 1000 bacteria. […] The number of interferon-γ producing cells present in spleen was measured on day 28 following in vitro stimulation with the CTL epitope or no antigen. […]

[2] = system: Listeria monocytogenes; assay: Protection against L. monocytogenes challenge (colony forming units in liver); format: in vivo; conditions: 9 nmol subcutaneously, i.v. challenge 28 days after priming, CFU in liver; relative to non-lipidated peptide or PBS
Source text: FIG. 12 is a graphical representation showing enhanced protection against L. monocytogenes infection for mice immunized with the lipopeptide designated [P25]-Lys(Pam2Cys-Ser-Ser)-[LLO91-99] in FIG. 2 (based upon SEQ ID NO: 175). Five 5 BALB/c mice were inoculated intravenously with 1,000 bacteria (column 1), or immunized subcutaneously with PBS (column 2) or 9 nmol [P25]-Lys(Pam2Cys-Ser-Ser)-[LLO91-99] peptide (column 3) or 9 nmol non-lipidated [P25]-Lys-[LLO091-99] peptide (SEQ ID NO: 175; column 4), as indicated on the x-axis. Mice were challenged with whole bacteria and the number of colony forming units present in liver was measured 28 days post-challenge (ordinate).
Listeria monocytogenes EGD was cultured overnight at 37° C. on Horse Blood Agar (HBA) plates. The bacteria were washed off the plates using sterile PBS and the concentration adjusted to 5×10^3 Listeria cells/ml. Balb/c mice were infected intravenously with 1×10^3 Listeria cells. The dose was checked retrospectively by plating serial 10-fold dilutions on HBA plates.
Mice immunized s.c. with 9 nmol peptide immunogen or PBS, or i.v. with 1000 bacteria, were challenged by i.v. injection with bacteria 28 days after priming and the number of colony forming units of bacteria present in the liver determined 28 days after challenge.

[P25]-Lys(Pam2Cys-Ser-Ser)-[LLO91-99]: peptide [P25]-Lys-[LLO91-99] and a lipid of the Formula (IV) conjugated to the epsilon-amino group of the internal lysine (KLIPNASLIENCTKAELK([Ser-Ser-Pam2Cys])GYKDGNEYI)
IFN-γ producing cells per million splenocytes relative to non-lipidated peptide or PBS control [1]: about 15 fold | protection against challenge with whole bacteria [2]: successfully provides protection; also recorded: significantly enhanced protection
